Test results as given in patent publication US5780431A, “Pharmaceutical formulations of corticotropin releasing factor having improved stability in liquid form” (Neurobiological Technologies, Inc., priority 1996, dated 1998).
In brackets after ≈: the same amount, converted by molar mass. Several values for one entry are separate records, joined by “and”; a condition that tells them apart may be missing. Identical values can stand only once. Like-named read-outs stand apart in the source and are kept apart here.

How the values were obtained:
[1] = Solubility of CRF in various non-volatile buffer solutions; format: physicochemical
Protocol: (§1) In an effort to develop liquid formulations of CRF useful for commercial pharmaceutical purposes, experiments designed to measure the solubility of CRF in a variety of different buffer solutions were carried out. Specifically, CRF was added in increasing amounts to a variety of different buffer solutions at various different concentrations and pH's, either in the presence or absence of other excipient additives and the solubility of the CRF product was determined. Table 1 summarizes the results of these experiments measuring the solubility of CRF in various phosphate, citrate and acetate buffers, either in the presence or absence of various excipients such as NaCl and mannitol. CRF solubility is expressed in gross weight of CRF in mg/ml of solution.
Next, because it is known that certain buffers may be volatilized when lyophilized, further experiments were conducted as described above to examine the solubility of CRF in various other non-volatile buffer solutions.

[2] = Solubility of CRF in various buffer solutions; format: physicochemical; conditions: for solubility: read-out: CRF solubility (gross weight)
Protocol: as §1

In the case of `CC[C@H](C)[C@H](NC(=O)[C@@H](NC(=O)[C@H](CCC(=O)O)NC(=O)[C@H](CCSC)NC(=O)[C@H](CC(C)C)NC(=O)[C@H](CCCCN)NC(=O)[C@H](CCCNC(=N)N)NC(=O)[C@H](CC(N)=O)NC(=O)[C@H](CO)NC(=O)[C@H](Cc1c[nH]cn1)NC(=O)[C@H](C)NC(=O)[C@H](CCC(N)=O)NC(=O)[C@H](CCC(N)=O)NC(=O)[C@H](C)NC(=O)[C@H](CC(C)C)NC(=O)[C@H](CCC(N)=O)NC(=O)[C@H](CCC(=O)O)NC(=O)[C@H](C)NC(=O)[C@H](CCCNC(=N)N)NC(=O)[C@H](C)NC(=O)[C@H](CCSC)NC(=O)[C@H](CCC(=O)O)NC(=O)[C@H](CC(C)C)NC(=O)[C@@H](NC(=O)[C@H](CCC(=O)O)NC(=O)[C@H](CCCNC(=N)N)NC(=O)[C@H](CC(C)C)NC(=O)[C@H](CC(C)C)NC(=O)[C@H](Cc1c[nH]cn1)NC(=O)[C@H](Cc1ccccc1)NC(=O)[C@@H](NC(=O)[C@H](CC(C)C)NC(=O)[C@H](CC(=O)O)NC(=O)[C@H](CC(C)C)NC(=O)[C@H](CO)NC(=O)[C@@H](NC(=O)[C@@H]1CCCN1C(=O)[C@@H]1CCCN1C(=O)[C@H](CCC(=O)O)NC(=O)[C@H](CCC(=O)O)NC(=O)[C@@H](N)CO)[C@@H](C)CC)[C@@H](C)O)C(C)C)[C@@H](C)CC)C(N)=O` [CRF], the CRF solubility ([1]; 10 mM Phosphate, pH 7.3) is reported as 3.0 net mg/ml, the CRF solubility ([1]; 10 mM Phosphate, pH 7.3 + 25 mM ascorbate) is reported as 1.2 net mg/ml and the CRF solubility ([1]; 10 mM Phosphate, pH 7.3 + 0.25% arginine) is reported as 2.0 net mg/ml. For the same compound, the CRF solubility ([1]; 10 mM Phosphate, pH 7.3 + 0.25% glycine) was 2.2 net mg/ml, the CRF solubility ([1]; 25 mM Ascorbic, pH 4.0) was 4.5 net mg/ml and the CRF solubility ([1]; 25 mM Lactic, pH 4.0) was 1.9 net mg/ml. The CRF solubility ([1]; 25 mM Succinic, pH 4.0) was 4.2 net mg/ml, the CRF solubility ([1]; 25 mM Tartaric, pH 4.0) was 0.2 net mg/ml and the “CRF solubility” value ([1]; ascorbic, lactic, succinic and phosphate buffers tested) was “extremely soluble”. The “CRF solubility” value ([2]; acetate buffer between pH 4 and 5 without added NaCl) was “very soluble”, the CRF solubility ([2]; citrate buffer between pH 4 and 6) was under 200 µg/mL and the solubility ([2]; citrate buffer, pH 4, aqueous buffer, pH 4.0, 25 mM Citrate, 150 mM NaCl) was 20 µg/mL (≈ 4.2 µM). The solubility ([2]; citrate buffer, pH 4, aqueous buffer, pH 4.0, 25 mM Citrate) was 40 µg/mL (≈ 8.41 µM), the solubility ([2]; citrate buffer, pH 5.1, aqueous buffer, pH 5.1, 25 mM Citrate, 150 mM NaCl) was 10 µg/mL (≈ 2.1 µM) and the solubility ([2]; citrate buffer, pH 5.1, aqueous buffer, pH 5.1, 25 mM Citrate) was 20 µg/mL (≈ 4.2 µM). For the same compound, the “CRF solubility (gross weight)” value ([2]; pH 2.0, 10 mM PO4, 138 mM NaCl) was 50000 µg/mL, the “CRF solubility (gross weight)” value ([2]; pH 4.08, 5 mM Citrate) was 200 µg/mL and the “CRF solubility (gross weight)” value ([2]; pH 4.08, 5 mM Citrate, 150 mM NaCl) was 160 µg/mL. The “CRF solubility (gross weight)” value ([2]; pH 4.2, 5 mM HOAC, 150 mM NaCl) was 1170 µg/mL, the “CRF solubility (gross weight)” value ([2]; pH 4.2, 25 mM HOAc) was 29000 µg/mL and the “CRF solubility (gross weight)” value ([2]; pH 4.26, 20 mM HOAc, 5% mannitol) was 14500 µg/mL. For the same compound, the “CRF solubility (gross weight)” value ([2]; pH 4.34, 20 mM HOAc, 5% mannitol) was 11200 µg/mL, the “CRF solubility (gross weight)” value ([2]; pH 4.4, 5 mM HOAC) was 33000 µg/mL and the “CRF solubility (gross weight)” value ([2]; pH 4.45, 20 mM HOAc, 5% mannitol) was 13800 µg/mL. The “CRF solubility (gross weight)” value ([2]; pH 4.49, 25 mM HOAc) was 5340 µg/mL, the “CRF solubility (gross weight)” value ([2]; pH 4.49, 25 mM HOAc, 150 mM NaCl) was 280 µg/mL and the “CRF solubility (gross weight)” value ([2]; pH 4.52, 20 mM HOAc, 5% mannitol) was 12500 µg/mL. The “CRF solubility (gross weight)” value ([2]; pH 4.6, 5 mM HOAC, 5% mannitol) was 2200 µg/mL, the “CRF solubility (gross weight)” value ([2]; pH 4.7, 5 mM HOAC, 1% mannitol) was 1960 µg/mL and the “CRF solubility (gross weight)” value ([2]; pH 4.72, 5 mM HOAC, 1% Tween) was 1970 µg/mL. For the same compound, the “CRF solubility (gross weight)” value ([2]; pH 4.73, 20 mM HOAc, 5% mannitol) was 1530 µg/mL, the “CRF solubility (gross weight)” value ([2]; pH 4.81, 5 mM HOAC) was 1130 µg/mL and the “CRF solubility (gross weight)” value ([2]; pH 4.9, 25 mM HOAc) was 370 µg/mL. For the same compound, the “CRF solubility (gross weight)” value ([2]; pH 4.9, 25 mM HOAc, 150 mM NaCl) was 140 µg/mL, the “CRF solubility (gross weight)” value ([2]; pH 4.92, 5 mM Citrate) was 30 µg/mL and the “CRF solubility (gross weight)” value ([2]; pH 4.92, 5 mM Citrate, 150 mM NaCl) was 10 µg/mL. For the same compound, the “CRF solubility (gross weight)” value ([2]; pH 4.94, 20 mM HOAc, 5% mannitol) was 70 µg/mL, the “CRF solubility (gross weight)” value ([2]; pH 5.0, 5 mM HOAC) was 130 µg/mL and the “CRF solubility (gross weight)” value ([2]; pH 5.23, 20 mM HOAc, 5% mannitol) was 40 µg/mL. For the same compound, the “CRF solubility (gross weight)” value ([2]; pH 5.84, 5 mM Citrate) was 40 µg/mL, the “CRF solubility (gross weight)” value ([2]; pH 5.84, 5 mM Citrate, 150 mM NaCl) was 20 µg/mL and the “CRF solubility (gross weight)” value ([2]; pH 6.0, 5 mM HOAC) was 30 µg/mL. For the same compound, the “CRF solubility (gross weight)” value ([2]; pH 6.1, 25 mM Citrate) was 100 µg/mL, the “CRF solubility (gross weight)” value ([2]; pH 6.1, 25 mM Citrate, 150 mM NaCl) was 70 µg/mL and the “CRF solubility (gross weight)” value ([2]; pH 6.24, 25 mM HOAc) was 90 µg/mL. The “CRF solubility (gross weight)” value ([2]; pH 6.24, 25 mM HOAc, 150 mM NaCl) was 50 µg/mL, the “CRF solubility (gross weight)” value ([2]; pH 7.1, 10 mM PO4, 138 mM NaCl) was 480 µg/mL and 840 µg/mL and the “CRF solubility” value ([2]; phosphate buffer between pH 2 and 3.6) was “very soluble”. It also gave a solubility ([2]; phosphate buffer, pH 3.6, aqueous buffer, pH 3.6, 10 mM PO4, 138 mM NaCl) of 2640 µg/mL (≈ 555 µM), a solubility ([2]; phosphate buffer, pH 4.2, aqueous buffer, pH 4.2, 10 mM PO4, 138 mM NaCl) of 290 µg/mL (≈ 61 µM) and a solubility ([2]; phosphate buffer, pH 4.5, aqueous buffer, pH 4.5, 10 mM PO4, 138 mM NaCl) of 620 µg/mL (≈ 130 µM). The solubility ([2]; phosphate buffer, pH 5.6, aqueous buffer, pH 5.6, 10 mM PO4, 138 mM NaCl) was 310 µg/mL (≈ 65.2 µM), the solubility ([2]; phosphate buffer, pH 6.02, aqueous buffer, pH 6.02, 5 mM PO4) was 80 µg/mL (≈ 16.8 µM) and the solubility ([2]; phosphate buffer, pH 6.7, aqueous buffer, pH 6.7, 10 mM PO4, 138 mM NaCl) was 520 µg/mL (≈ 109 µM). For the same compound, the solubility ([2]; phosphate buffer, pH 6.96, aqueous buffer, pH 6.96, 5 mM PO4) was 470 µg/mL (≈ 98.8 µM), the solubility ([2]; phosphate buffer, pH 7.32, aqueous buffer, pH 7.32, 20 mM PO4) was 1460 µg/mL (≈ 307 µM) and the solubility ([2]; phosphate buffer, pH 7.7, aqueous buffer, pH 7.7, 5 mM PO4) was 460 µg/mL (≈ 96.7 µM).
